{"source": "patent US20020148008A1", "about": "“Gene which regulates the dormancy of wheat seed” (priority 2000, published 2002)", "test_in_all_cases": "Abscisic acid-sensitivity of seed embryo (seeds cut in halves, sprouting and sprout stretching)", "type_in_all_cases": "in vivo", "key": {"[1]": {"system": "Sanin 1 wheat seeds (weak dormancy)", "method": "(§1) Next, seeds obtained from 3 varieties Minaminokomugi, Sanin 1 and Tozan 18) and seeds in which dormancy has been disrupted (Minaminokomugi, Sanin 1) were soaked individually in 5% (W/V) Benlate T(DuPont, USA) for 10 minutes, then sterilized by washing with distilled water. The grains of these wheat seeds were cut in halves to be laid in pet dish. A section where 8 mL of abscisic acid (ABA) solution was added and a section where 8 mL of distilled water was added were produced for each seed, followed by culturing at 22° C. for 6 days to determine the sprouting rate and the degree of sprout stretching."}, "[2]": {"system": "Tozan 18 wheat seeds (weak dormancy)", "method": "as §1"}, "[3]": {"system": "Minaminokomugi wheat seeds (strong dormancy)", "method": "as §1"}, "[4]": {"system": "Minaminokomugi wheat seeds (the dormancy has been disrupted)", "method": "as §1"}, "[5]": {"system": "Sanin 1 wheat seeds (the dormancy has been disrupted)", "method": "as §1"}}}
{"smiles": "CC1=CC(=O)CC(C)(C)[C@@]1(O)/C=C/C(C)=C\\C(=O)O", "note": "[ABA, abscisic acid]", "values": [{"measurement": "Sprouting Rate (%)", "setting": "[1]; Sanin 1, seeds cut in halves, + 10 μM ABA, 22° C., 6 days", "value": 100, "unit": "%"}, {"measurement": "abscisic acid-sensitivity", "setting": "[1]; seeds of Sanin 1 with weak dormancy", "value": "weak abscisic acid-sensitivity or insensitivity"}, {"measurement": "Sprouting Rate (%)", "setting": "[2]; Tozan 18, seeds cut in halves, + 10 μM ABA, 22° C., 6 days", "value": 100, "unit": "%"}, {"measurement": "abscisic acid-sensitivity", "setting": "[2]; seeds of Tozan 18 with weak dormancy", "value": "weak abscisic acid-sensitivity or insensitivity"}, {"measurement": "Sprouting Rate (%)", "setting": "[3]; Minaminokomugi, seeds cut in halves, + 10 μM ABA, 22° C., 6 days", "value": 0, "unit": "%"}, {"measurement": "abscisic acid-sensitivity", "setting": "[3]; seed of Minaminokomugi with strong dormancy", "value": "strong abscisic acid-sensitivity"}, {"measurement": "Sprouting Rate (%)", "setting": "[4]; Minaminokomugi (dormancy disrupted), seeds cut in halves, + 10 μM ABA, 22° C., 6 days", "value": 70, "unit": "%"}, {"measurement": "abscisic acid-sensitivity", "setting": "[4]; seeds of Minaminokomugi in which dormancy has been disrupted", "value": "weak abscisic acid-sensitivity or insensitivity"}, {"measurement": "Sprouting Rate (%)", "setting": "[5]; Sanin 1 (dormancy disrupted), seeds cut in halves, + 10 μM ABA, 22° C., 6 days", "value": 100, "unit": "%"}, {"measurement": "abscisic acid-sensitivity", "setting": "[5]; seeds of Sanin 1 in which dormancy has been disrupted", "value": "weak abscisic acid-sensitivity or insensitivity"}]}
